Source: patent publication US7348140B1, “Clinical indications for genotyping polymorphic variants of G-protein coupled receptors” (Acadia Pharmaceuticals, Inc., priority 2001, dated 2008)
Numbering of substitutions follows the chain as printed. Several values for one entry are separate records, joined by “and”; a condition that tells them apart may be missing. Equal entries are not always repeated. Where two headings read alike, the source gives them in different places.

Assays:
[1] = target: histamine H2 receptor (Arginine 215 / Lysine 231) (Homo sapiens, UniProt P25021); experiment: R-SAT functional assay, histamine H2 receptor wild type; format: cell-based; conditions: agonists and inverse agonists
[2] = target: serotonin 7 receptor (Leucine 421) (Homo sapiens, UniProt P34969); experiment: R-SAT functional assay, serotonin 7 receptor wild type; format: cell-based; conditions: Leucine 421 (wild type), inverse agonists, Table 20; for EC50: read-out: Ave −Log EC50 (converted)
[3] = target: serotonin 7 receptor L421P (Proline 421) (Homo sapiens, UniProt P34969, L421P); experiment: R-SAT functional assay, serotonin 7 receptor L421P; format: cell-based; conditions: Table 20; for EC50: read-out: Ave −Log EC50 (converted); for FOLD: shift in functional potency, Proline 421 vs Leucine 421
[4] = target: serotonin 1E receptor (Isoleucine 44 / Serine 262) (Homo sapiens, UniProt P28566); experiment: cell-based
[5] = target: serotonin 1E receptor I44T (Threonine 44) (Homo sapiens, UniProt P28566, I44T); experiment: cell-based
[6] = target: serotonin 1E receptor S262F (Phenylalanine 262) (Homo sapiens, UniProt P28566, S262F); experiment: cell-based
[7] = target: dopamine D2 receptor (Leucine 40 / Valine 208) (Homo sapiens, UniProt P14416); experiment: R-SAT functional assay, dopamine D2 receptor wild type; format: cell-based; conditions: Ave −Log EC50
[8] = target: T1, dopamine D2 receptor L40R (Arginine 40) (Homo sapiens, UniProt P14416, L40R); experiment: R-SAT functional assay, dopamine D2 receptor L40R; format: cell-based
T1 construct: expressed in transfected cells; host or cells: NIH-3T3

[9] = target: T2, dopamine D2 receptor V208L (Leucine 208) (Homo sapiens, UniProt P14416, V208L); experiment: R-SAT functional assay, dopamine D2 receptor V208L; format: cell-based
T2 construct: expressed in transfected cells; host or cells: NIH-3T3

[10] = target: T3, alpha 1A/C receptor (Glycine 43 / Isoleucine 200) (Homo sapiens, UniProt P35348, C347R/Q431E); experiment: R-SAT functional assay, alpha 1A/C receptor wild type; format: cell-based; conditions: read-out: Ave −Log EC50 (converted)
T3 construct: expressed in transfected cells; host or cells: NIH-3T3
T3 sequence (P35348 1-464 C347R/Q431E): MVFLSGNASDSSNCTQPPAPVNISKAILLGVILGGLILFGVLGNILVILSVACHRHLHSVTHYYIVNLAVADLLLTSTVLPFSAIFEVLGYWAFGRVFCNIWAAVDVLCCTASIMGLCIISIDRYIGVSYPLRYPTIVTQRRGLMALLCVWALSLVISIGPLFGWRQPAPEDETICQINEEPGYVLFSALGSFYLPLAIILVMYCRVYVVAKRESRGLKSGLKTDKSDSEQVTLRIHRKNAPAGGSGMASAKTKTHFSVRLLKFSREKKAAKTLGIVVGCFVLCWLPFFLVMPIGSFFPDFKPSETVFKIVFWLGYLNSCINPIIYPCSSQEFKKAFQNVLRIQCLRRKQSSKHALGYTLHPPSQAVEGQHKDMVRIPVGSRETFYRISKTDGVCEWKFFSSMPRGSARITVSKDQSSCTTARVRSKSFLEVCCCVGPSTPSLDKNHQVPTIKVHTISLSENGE

[11] = target: T4, alpha 1A/C receptor I200S (Serine 200) (Homo sapiens, UniProt P35348, C347R/I200S/Q431E); experiment: R-SAT functional assay, alpha 1A/C receptor I200S; format: cell-based; conditions: Table 2; for EC50: Serine 200 (I200S), read-out: Ave −Log EC50 (converted); for FOLD: shift in functional potency, Serine 200 vs Isoleucine 200
T4 construct: expressed in transfected cells; host or cells: NIH-3T3
T4 sequence (P35348 1-464 I200S/C347R/Q431E): T3 sequence (P35348 1-464 C347R/Q431E) with I200S

[12] = target: T5, alpha 1A/C receptor G43C (Cysteine 43) (Homo sapiens, UniProt P35348, C347R/G43C/Q431E); experiment: R-SAT functional assay, alpha 1A/C receptor G43C; format: cell-based; conditions: Table 1
T5 construct: expressed in transfected cells; host or cells: NIH-3T3

[13] = target: serotonin 2B receptor R388W (Tryptophan 388) (Homo sapiens, UniProt P41595, R388W); experiment: cell-based
[14] = target: serotonin 2B receptor (Arginine 388) (Homo sapiens, UniProt P41595); experiment: cell-based
[15] = target: T6, thromboxane receptor V176E (Glutamic Acid 176) (Homo sapiens, UniProt P21731, V176E); experiment: R-SAT functional assay, thromboxane receptor V176E; format: cell-based; conditions: shift in functional potency, Glutamic Acid 176 vs Valine 176
T6 construct: expressed in transfected cells; host or cells: NIH-3T3

[16] = target: T7, thromboxane receptor V80E (Glutamic Acid 80) (Homo sapiens, UniProt P21731, V80E); experiment: R-SAT functional assay, thromboxane receptor V80E; format: cell-based; conditions: shift in functional potency, Glutamic Acid 80 vs Valine 80; Table 26
T7 construct: expressed in transfected cells; host or cells: NIH-3T3

[17] = target: T8, thromboxane receptor E94V (Valine 94) (Homo sapiens, UniProt P21731, E94V); experiment: R-SAT functional assay, thromboxane receptor E94V; format: cell-based; conditions: shift in functional potency, Valine 94 vs Glutamine 94; Table 27
T8 construct: expressed in transfected cells; host or cells: NIH-3T3

[18] = Proline 421 (L421P), inverse agonists
[19] = Isoleucine 200 (wild type), Table 2

CN(C)CCCSC(=N)N
EC50 ([1]; Arginine 215 (wild type), Table 10, read-out: Ave −Log EC50 (converted)): 234 nM
Ave −Log EC50 ([1]; Lysine 231 (wild type), Table 11): 6.63

OCCN1CCN([C@@H]2C[C@@H](c3ccc(F)cc3)c3ccc(C(F)(F)F)cc32)CC1 (racemic) [Tefludazine]
EC50 [2]: 0.417 nM
EC50 [3, 18]: 11.2 nM
FOLD [3]: 27.0 fold

CN1CCC(c2c[nH]c3ccc(O)cc23)CC1.O=C(O)/C=C\C(=O)O [BRL54443, 3-(1-Methylpiperidin-4-yl)-1H-indole-5-ol maleate]
Ave −Log EC50 [4]: 7.53
EC50 [4]: 29.5 nM
EC50 [5]: 1480 nM
FOLD [5]: 50 fold
EC50 [6]: 174 nM
FOLD [6]: 5.9 fold

CC(C)C[C@H]1C(=O)N2CCC[C@H]2[C@]2(O)O[C@](NC(=O)[C@@H]3C=C4c5cccc6[nH]c(Br)c(c56)C[C@H]4N(C)C3)(C(C)C)C(=O)N12 [Bromocriptine]
EC50 [7]: 0.447 nM and 1.66 nM
EC50 [8]: 47.9 nM
EC50 [9]: 0.295 nM

c1ccc(C2CC2)c(OCC2=NCCN2)c1 [Cirazoline]
EC50 ([10]; Glycine 43 (wild type), Table 1): 42.7 nM
EC50 [10, 19]: 15.5 nM
EC50 [11]: 47.9 nM
FOLD [11]: 3.1 fold
EC50 ([12]; Cysteine 43 (G43C), read-out: Ave −Log EC50 (converted)): 14.5 nM
FOLD ([12]; shift in functional potency, Cysteine 43 vs Glycine 43): −3.0 fold

OCCN1CCN(CC/C=C2/c3ccccc3Sc3ccc(C(F)(F)F)cc32)CC1 [Cis-flupenthixol]
Ave −Log EC50 [2]: 8.05
Ave −Log EC50 [3, 18]: 7.61
FOLD [3]: 2.8 fold

CN1C[C@H](C(=O)N[C@]2(C)O[C@@]3(O)[C@@H]4CCCN4C(=O)[C@H](Cc4ccccc4)N3C2=O)C[C@@H]2c3cccc4[nH]cc(c34)C[C@H]21 [Dihydroergotamine, dihydroergotamine]
EC50 [13]: 1.17 nM
FOLD [13]: 2.5 fold
EC50 [7]: 0.0513 nM and 0.269 nM
EC50 [14]: 0.0933 nM
EC50 [8]: 24.5 nM
FOLD [8]: 479 fold
EC50 [9]: 0.0513 nM
FOLD [9]: −5.2 fold

CC(CCc1ccc(O)cc1)NCCc1ccc(O)c(O)c1 (stereo not shown) [Dobutamine]
EC50 [10, 19]: 550 nM
EC50 [11]: 2140 nM
FOLD [11]: 3.9 fold

OCCN1CCN(CCCN2c3ccccc3Sc3ccc(C(F)(F)F)cc32)CC1 [Fluphenazine]
EC50 [2]: 6.76 nM
EC50 [3, 18]: 38.9 nM
FOLD [3]: 5.8 fold

O=C(O)CCC/C=C\C[C@@H]1[C@@H](/C=C/[C@@H](O)COc2ccc(I)cc2)[C@H]2CC[C@@H]1O2 [I-BOP]
FOLD [15]: 13 fold
FOLD [16]: 93 fold
FOLD [17]: 3.5 fold
